# Measurements as given in US4442044A, “Process for preparing monoesters and diesters of N-alkyl substituted amino methyl phosphonic acid” (priority 1983, dated 1984).
# Key:
# Format in all cases: in vivo
# [1] = test system: Canada Thistle; assay: pre-emergent herbicidal activity, soil incorporation; conditions: Table III, 2 WAT, 11.2 kg/h
# Summary of the method: (§1)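 Here the herbicide is blended into the top soil layer rather than sprayed, and pans absorb water from below under normal sunlight for around two weeks. Percent control, averaged per species against untreated pans, sets the pre-emergent activity index.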
# [2] = test system: Cocklebur; assay: as above; conditions: Table III, 2 WAT, 11.2 kg/h
# Summary of the method: as §1
# [3] = test system: Yellow Nutsedge; assay: as above; conditions: Table III, 2 WAT, 11.2 kg/h
# Summary of the method: as §1
# [4] = test system: Smartweed; assay: as above; conditions: Table III, 2 WAT, 11.2 kg/h
# Summary of the method: as §1
# [5] = test system: Lambsquarters; assay: as above; conditions: Table III, 2 WAT, 11.2 kg/h
# Summary of the method: as §1
# [6] = test system: Morningglory; assay: as above; conditions: Table III, 2 WAT, 11.2 kg/h
# Summary of the method: as §1
# [7] = test system: Quackgrass; assay: as above; conditions: Table III, 2 WAT, 11.2 kg/h
# Summary of the method: as §1
# [8] = test system: Downy Brome; assay: as above; conditions: Table III, 2 WAT, 11.2 kg/h
# Summary of the method: as §1
# [9] = test system: Velvetleaf; assay: as above; conditions: Table III, 2 WAT, 11.2 kg/h
# Summary of the method: as §1
# [10] = test system: Johnsongrass; assay: as above; conditions: Table III, 2 WAT, 11.2 kg/h
# Summary of the method: as §1
# [11] = test system: Barnyardgrass; assay: as above; conditions: Table III, 2 WAT, 11.2 kg/h
# Summary of the method: as §1
# [12] = test system: Canada Thistle; assay: post-emergent herbicidal activity, greenhouse; conditions: Table I, 4 WAT
# Summary of the method: (§2)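 Post-emergence foliar spray at tabulated application rates, using aliquots of a 1.0% stock in acetone, THF or water plus ~0.4% emulsifier, applied to 2–3-week-old greenhouse plants. Plant injury was rated relative to controls roughly two and four weeks after treatment.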
# [13] = test system: Sugar Beet; assay: post-emergent herbicidal activity, greenhouse; conditions: Table II, 4 WAT
# Summary of the method: as §2
# [14] = test system: Cocklebur; assay: post-emergent herbicidal activity, greenhouse; conditions: 4 WAT
# Summary of the method: as §2
# [15] = test system: Wild Buckwheat; assay: post-emergent herbicidal activity, greenhouse; conditions: Table II, 4 WAT
# Summary of the method: as §2
# [16] = test system: Yellow Nutsedge; assay: post-emergent herbicidal activity, greenhouse; conditions: Table I, 4 WAT
# Summary of the method: as §2
# [17] = test system: Panicum Spp; assay: post-emergent herbicidal activity, greenhouse; conditions: Table II, 4 WAT
# Summary of the method: as §2
# [18] = test system: Crabgrass; assay: post-emergent herbicidal activity, greenhouse; conditions: Table II, 4 WAT
# Summary of the method: as §2
# [19] = test system: Smartweed; assay: post-emergent herbicidal activity, greenhouse; conditions: 4 WAT
# Summary of the method: as §2
# [20] = test system: Sorghum; assay: post-emergent herbicidal activity, greenhouse; conditions: Table II, 4 WAT
# Summary of the method: as §2
# [21] = test system: Hemp Sesbania; assay: post-emergent herbicidal activity, greenhouse; conditions: Table II, 4 WAT
# Summary of the method: as §2
# [22] = test system: Rice; assay: post-emergent herbicidal activity, greenhouse; conditions: Table II, 4 WAT
# Summary of the method: as §2
# [23] = test system: Lambsquarters; assay: post-emergent herbicidal activity, greenhouse; conditions: 4 WAT
# Summary of the method: as §2
# [24] = test system: Morningglory; assay: post-emergent herbicidal activity, greenhouse; conditions: 4 WAT
# Summary of the method: as §2
# [25] = test system: Quackgrass; assay: post-emergent herbicidal activity, greenhouse; conditions: Table I, 4 WAT
# Summary of the method: as §2
# [26] = test system: Downy Brome; assay: post-emergent herbicidal activity, greenhouse; conditions: 4 WAT
# Summary of the method: as §2
# [27] = test system: Velvetleaf; assay: post-emergent herbicidal activity, greenhouse; conditions: 4 WAT
# Summary of the method: as §2
# [28] = test system: Wheat; assay: post-emergent herbicidal activity, greenhouse; conditions: Table II, 4 WAT
# Summary of the method: as §2
# [29] = test system: Johnsongrass; assay: post-emergent herbicidal activity, greenhouse; conditions: Table I, 4 WAT
# Summary of the method: as §2
# [30] = test system: Soybean; assay: post-emergent herbicidal activity, greenhouse; conditions: Table II, 4 WAT
# Summary of the method: as §2
# [31] = test system: Barnyardgrass; assay: post-emergent herbicidal activity, greenhouse; conditions: 4 WAT
# Summary of the method: as §2
compound,measurement,setting,value
"CCCCCOC(=O)CNCP(=O)(O)OC(C)C#N (stereo not drawn) [Example 6, glycine, N-[[(1-cyanoethoxy)hydroxy-phosphinyl]methyl]pentyl ester, hemihydrate]",pre-emergent herbicidal activity index,[1],0 (1-24% control)
same,pre-emergent herbicidal activity index,[2],0 (1-24% control)
same,pre-emergent herbicidal activity index,[3],0 (1-24% control)
same,pre-emergent herbicidal activity index,[4],0 (1-24% control)
same,pre-emergent herbicidal activity index,[5],0 (1-24% control)
same,pre-emergent herbicidal activity index,[6],0 (1-24% control)
same,pre-emergent herbicidal activity index,[7],0 (1-24% control)
same,pre-emergent herbicidal activity index,[8],0 (1-24% control)
same,pre-emergent herbicidal activity index,[9],0 (1-24% control)
same,pre-emergent herbicidal activity index,[10],0 (1-24% control)
same,pre-emergent herbicidal activity index,[11],0 (1-24% control)
same,post-emergent herbicidal activity index,[12]; 5.6 kg/h,4 (100% control)
same,post-emergent herbicidal activity index,[12]; 11.2 kg/h,4 (100% control)
same,post-emergent herbicidal activity index,[13]; 0.28 kg/h,2 (50-74% control)
same,post-emergent herbicidal activity index,[13]; 1.12 kg/h,4 (100% control)
same,post-emergent herbicidal activity index,[13]; 5.6 kg/h,4 (100% control)
same,post-emergent herbicidal activity index,"[14]; Table I, 5.6 kg/h",3 (75-99% control)
same,post-emergent herbicidal activity index,"[14]; Table I, 11.2 kg/h",3 (75-99% control)
same,post-emergent herbicidal activity index,"[14]; Table II, 0.28 kg/h",2 (50-74% control)
same,post-emergent herbicidal activity index,"[14]; Table II, 1.12 kg/h",2 (50-74% control)
same,post-emergent herbicidal activity index,"[14]; Table II, 5.6 kg/h",3 (75-99% control)
same,post-emergent herbicidal activity index,[15]; 0.28 kg/h,2 (50-74% control)
same,post-emergent herbicidal activity index,[15]; 1.12 kg/h,2 (50-74% control)
same,post-emergent herbicidal activity index,[15]; 5.6 kg/h,4 (100% control)
same,post-emergent herbicidal activity index,[16]; 5.6 kg/h,2 (50-74% control)
same,post-emergent herbicidal activity index,[16]; 11.2 kg/h,4 (100% control)
same,post-emergent herbicidal activity index,[17]; 0.28 kg/h,4 (100% control)
same,post-emergent herbicidal activity index,[17]; 1.12 kg/h,4 (100% control)
same,post-emergent herbicidal activity index,[17]; 5.6 kg/h,4 (100% control)
same,post-emergent herbicidal activity index,[18]; 0.28 kg/h,3 (75-99% control)
same,post-emergent herbicidal activity index,[18]; 1.12 kg/h,3 (75-99% control)
same,post-emergent herbicidal activity index,[18]; 5.6 kg/h,4 (100% control)
same,post-emergent herbicidal activity index,"[19]; Table I, 5.6 kg/h",4 (100% control)
same,post-emergent herbicidal activity index,"[19]; Table I, 11.2 kg/h",4 (100% control)
same,post-emergent herbicidal activity index,"[19]; Table II, 0.28 kg/h",1 (25-49% control)
same,post-emergent herbicidal activity index,"[19]; Table II, 1.12 kg/h",3 (75-99% control)
same,post-emergent herbicidal activity index,"[19]; Table II, 5.6 kg/h",3 (75-99% control)
same,post-emergent herbicidal activity index,[20]; 0.28 kg/h,1 (25-49% control)
same,post-emergent herbicidal activity index,[20]; 1.12 kg/h,3 (75-99% control)
same,post-emergent herbicidal activity index,[20]; 5.6 kg/h,4 (100% control)
same,post-emergent herbicidal activity index,[21]; 0.28 kg/h,1 (25-49% control)
same,post-emergent herbicidal activity index,[21]; 1.12 kg/h,2 (50-74% control)
same,post-emergent herbicidal activity index,[21]; 5.6 kg/h,4 (100% control)
same,post-emergent herbicidal activity index,[22]; 0.28 kg/h,1 (25-49% control)
same,post-emergent herbicidal activity index,[22]; 1.12 kg/h,2 (50-74% control)
same,post-emergent herbicidal activity index,[22]; 5.6 kg/h,4 (100% control)
same,post-emergent herbicidal activity index,"[23]; Table I, 5.6 kg/h",2 (50-74% control)
same,post-emergent herbicidal activity index,"[23]; Table I, 11.2 kg/h",4 (100% control)
same,post-emergent herbicidal activity index,"[23]; Table II, 0.28 kg/h",1 (25-49% control)
same,post-emergent herbicidal activity index,"[23]; Table II, 1.12 kg/h",3 (75-99% control)
same,post-emergent herbicidal activity index,"[23]; Table II, 5.6 kg/h",4 (100% control)
same,post-emergent herbicidal activity index,"[24]; Table I, 5.6 kg/h",3 (75-99% control)
same,post-emergent herbicidal activity index,"[24]; Table I, 11.2 kg/h",2 (50-74% control)
same,post-emergent herbicidal activity index,"[24]; Table II, 0.28 kg/h",2 (50-74% control)
same,post-emergent herbicidal activity index,"[24]; Table II, 1.12 kg/h",2 (50-74% control)
same,post-emergent herbicidal activity index,"[24]; Table II, 5.6 kg/h",3 (75-99% control)
same,post-emergent herbicidal activity index,[25]; 5.6 kg/h,2 (50-74% control)
same,post-emergent herbicidal activity index,[25]; 11.2 kg/h,3 (75-99% control)
same,post-emergent herbicidal activity index,"[26]; Table I, 5.6 kg/h",1 (25-49% control)
same,post-emergent herbicidal activity index,"[26]; Table I, 11.2 kg/h",3 (75-99% control)
same,post-emergent herbicidal activity index,"[26]; Table II, 0.28 kg/h",3 (75-99% control)
same,post-emergent herbicidal activity index,"[26]; Table II, 1.12 kg/h",3 (75-99% control)
same,post-emergent herbicidal activity index,"[26]; Table II, 5.6 kg/h",4 (100% control)
same,post-emergent herbicidal activity index,"[27]; Table I, 5.6 kg/h",3 (75-99% control)
same,post-emergent herbicidal activity index,"[27]; Table I, 11.2 kg/h",3 (75-99% control)
same,post-emergent herbicidal activity index,"[27]; Table II, 0.28 kg/h",1 (25-49% control)
same,post-emergent herbicidal activity index,"[27]; Table II, 1.12 kg/h",2 (50-74% control)
same,post-emergent herbicidal activity index,"[27]; Table II, 5.6 kg/h",3 (75-99% control)
same,post-emergent herbicidal activity index,[28]; 0.28 kg/h,2 (50-74% control)
same,post-emergent herbicidal activity index,[28]; 1.12 kg/h,2 (50-74% control)
same,post-emergent herbicidal activity index,[28]; 5.6 kg/h,4 (100% control)
same,post-emergent herbicidal activity index,[29]; 5.6 kg/h,1 (25-49% control)
same,post-emergent herbicidal activity index,[29]; 11.2 kg/h,2 (50-74% control)
same,post-emergent herbicidal activity index,[30]; 0.28 kg/h,1 (25-49% control)
same,post-emergent herbicidal activity index,[30]; 1.12 kg/h,2 (50-74% control)
same,post-emergent herbicidal activity index,[30]; 5.6 kg/h,4 (100% control)
same,post-emergent herbicidal activity index,"[31]; Table I, 5.6 kg/h",3 (75-99% control)
same,post-emergent herbicidal activity index,"[31]; Table I, 11.2 kg/h",3 (75-99% control)
same,post-emergent herbicidal activity index,"[31]; Table II, 0.28 kg/h",2 (50-74% control)
same,post-emergent herbicidal activity index,"[31]; Table II, 1.12 kg/h",3 (75-99% control)
same,post-emergent herbicidal activity index,"[31]; Table II, 5.6 kg/h",3 (75-99% control)
